Patent EP0743938B1, “SUBSTITUTED SPIRO COMPOUNDS FOR THE TREATMENT OF INFLAMMATION” (G.D. SEARLE & CO., priority 1994, dated 1995)

How the values were obtained:
[1] = test system: Male Sprague-Dawley rats; assay: Rat Carrageenan-induced Analgesia Test; assay type: in vivo; settings: po, 3 h, read-out: ANALGESIA % Inhibition @ 10mg/kg body weight, rats dosed orally, hyperalgesic foot withdrawal, thermal stimulation three hours after carrageenan
[2] = test system: Male Sprague-Dawley rats; assay: Rat Carrageenan Foot Pad Edema Test; assay type: in vivo; settings: po, 3 h, rats dosed orally, 10mg/kg body weight, one hour before carrageenan, foot volume three hours after carrageenan, read-out: RAT PAW EDEMA % Inhibition @ 10mg/kg body weight
Description: Male Sprague-Dawley rats were selected in each group so that the average body weight was as close as possible. Rats were fasted with free access to water for over sixteen hours prior to the test. The rats were dosed orally (1 mL) with compounds suspended in vehicle containing 0.5% methylcellulose and .025% surfactant, or with vehicle alone. One hour later a subplantar injection of 0.1 mL of 1% solution of carrageenan/sterile 0.9% saline was administered and the volume of the injected foot was measured with a displacement plethysmometer connected to a pressure transducer with a digital indicator. Three hours after the injection of the carrageenan, the volume of the foot was again measured.

[3] = molecular target: COX-1 (Homo sapiens, UniProt P23219); settings: read-out: COX I ID50 µM
COX-1, sequence (P23219 24-599): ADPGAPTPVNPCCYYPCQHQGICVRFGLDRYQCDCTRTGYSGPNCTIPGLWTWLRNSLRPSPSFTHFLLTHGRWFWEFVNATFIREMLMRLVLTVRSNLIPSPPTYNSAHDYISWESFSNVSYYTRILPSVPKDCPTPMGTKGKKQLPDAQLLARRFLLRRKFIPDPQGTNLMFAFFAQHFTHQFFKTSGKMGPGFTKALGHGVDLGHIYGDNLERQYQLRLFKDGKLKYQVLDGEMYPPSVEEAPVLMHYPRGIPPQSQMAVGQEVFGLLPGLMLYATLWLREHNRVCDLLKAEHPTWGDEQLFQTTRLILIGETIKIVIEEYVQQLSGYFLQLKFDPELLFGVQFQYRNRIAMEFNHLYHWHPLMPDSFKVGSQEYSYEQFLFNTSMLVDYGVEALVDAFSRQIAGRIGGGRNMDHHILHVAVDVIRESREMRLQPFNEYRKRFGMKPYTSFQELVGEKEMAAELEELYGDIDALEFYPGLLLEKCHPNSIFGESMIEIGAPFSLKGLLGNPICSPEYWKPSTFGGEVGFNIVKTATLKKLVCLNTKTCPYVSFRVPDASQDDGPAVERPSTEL

SMILES | inhibition in vivo at 10 mg/kg [1] | inhibition in vivo at 10 mg/kg [2] | IC50 [3]
NS(=O)(=O)c1ccc(C2=C(c3ccc(Cl)c(Cl)c3)CC3(CC3)C2)cc1 [Example 29, 4-[6-(3,4-Dichlorophenyl)spiro[2.4]hept-5-en-5-yl]benzenesulfonamide] | 29% | 24% | –
CS(=O)(=O)c1ccc(C2=C(c3ccc(OC(F)(F)F)cc3)CC3(CC3)C2)cc1 [Example 14, 6-[4-(Methylsulfonyl)phenyl]-5-(4-trifluoromethoxyphenyl)spiro[2.4]hept-5-ene] | – | 18% | –
COc1ccc(C2=C(c3ccc(S(C)(=O)=O)cc3)CC3(CC3)C2)cc1Br [Example 16, 5-(3-Bromo-4-methoxyphenyl)-6-[4-(methylsulfonyl)phenyl]spiro[2.4]hept-5-ene] | – | 6% | –
COc1ccc(C2=C(c3ccc(S(C)(=O)=O)cc3)CC3(CC3)C2)cc1Cl [Example 6, 5-(3-Chloro-4-methoxyphenyl)-6-[4-(methylsulfonyl)phenyl)spiro[2.4]hept-5-ene] | 7% | 21% | –
CS(=O)(=O)c1ccc(C2=C(c3ccc(F)cc3)CC3(CC3)C2)cc1 [Example 1, 5-(4-Fluorophenyl)-6-[4-(methylsulfonyl)phenyl]spiro[2.4]hept-5-ene] | 15% | 32% | –
CS(=O)(=O)c1ccc(C2=C(c3ccc(F)c(Cl)c3)CC3(CC3)C2)cc1 [Example 22, 5-(3-Chloro-4-fluorophenyl)-6-[4-(methylsulfonyl)phenyl]spiro[2.4]hept-5-ene] | 10% | 21% | 6 µM
COc1ccc(C2=C(c3ccc(S(N)(=O)=O)cc3)CC3(CC3)C2)cc1Cl [Example 7, 4-[6-(3-Chloro-4-methoxyphenyl)spiro[2.4]hept-5-en-5-yl]benzenesulfonamide] | 18% | 20% | –
COc1c(Cl)cc(C2=C(c3ccc(S(C)(=O)=O)cc3)CC3(CC3)C2)cc1Cl [Example 20, 5-(3,5-Dichloro-4-methoxyphenyl)-6-[4-(methylsulfonyl)phenyl]spiro[2.4]hept-5-ene] | 28% | 24% | –
NS(=O)(=O)c1ccc(C2=C(c3ccc(F)cc3)CC3(CC3)C2)cc1 [Example 2, 4-[6-(4-Fluorophenyl)spiro[2.4]hept-5-en-5-yl]benzenesulfonamide] | 34% | 57% | –
NS(=O)(=O)c1ccc(C2=C(c3ccc(F)cc3)CC3(CCC3)C2)cc1 [Example 4, 4-[7-(4-Fluorophenyl)spiro[3.4]oct-6-en-6-yl]benzenesulfonamide] | – | 17% | –
NS(=O)(=O)c1ccc(C2=C(c3ccc(C(F)(F)F)cc3)CC3(CC3)C2)cc1 [Example 25, 4-[6-(4-Trifluoromethylphenyl)spiro[2.4]hept-5-en-5-yl]benzenesulfonamide] | 22% | 34% | –
CS(=O)(=O)c1ccc(C2=C(c3ccc(F)cc3)CC3(CCC3)C2)cc1 [Example 3, 6-(4-Fluorophenyl)-7-[4-(methylsulfonyl)phenyl]spiro[3.4]oct-6-ene] | – | 24% | –
COc1ccc(C2=C(c3ccc(S(C)(=O)=O)cc3)CC3(CC3)C2)cc1F [Example 8, 5-(3-Fluoro-4-methoxyphenyl)-6-[4-(methylsulfonyl)phenyl]spiro[2.4]hept-5-ene] | 8% | 15% | –
CS(=O)(=O)c1ccc(C2=C(c3ccc(C(F)(F)F)cc3)CC3(CC3)C2)cc1 [Example 19, 6-[4-(Methylsulfonyl)phenyl)-5-(4-trifluoromethylphenyl)spiro[2.4]hept-5-ene] | 9% | 11% | –
CS(=O)(=O)c1ccc(C2=C(c3ccc(Cl)c(Cl)c3)CC3(CC3)C2)cc1 [Example 27, 5-(3,4-Dichlorophenyl)-6-[4-(methylsulfonyl)phenyl]spiro[2.4]hept-5-ene] | – | 15% | –
COc1ccc(C2=C(c3ccc(S(N)(=O)=O)cc3)CC3(CC3)C2)cc1F [Example 9, 4-[6-(3-Fluoro-4-methoxyphenyl)spiro[2.4]hept-5-en-5-yl]benzenesulfonamide] | 17% | 15% | –
